Legend:
[1] = system: adult subjects with relapsing MS; assay: FSIQ-RMS weekly symptoms score, change from baseline to Week 108; type: in vivo, human
Excerpt: In some embodiments, the patient-reported outcome questionnaire is the Fatigue Symptoms and Impact Questionnaire—Relapsing Multiple Sclerosis (FSIQ-RMS) (available from Mapi Research Trust). The FSIQ-RMS is an MS specific 20-item PRO measure that comprises 2 domains: one measuring MS symptoms and one measuring MS-related impacts. See Hudgens S, et al., Development and Validation of the FSIQ-RMS: A New Patient-Reported Questionnaire to Assess Symptoms and Impacts of Fatigue in Relapsing Multiple Sclerosis. Value Health. 2019 April; 22 (4): 453-466. doi: 10.1016/j.jval.2018.11.007. Epub 2019 Feb. 21. PubMed PMID: 30975397. With 7 symptom items and 13 impact items (in 3 impacts subdomains: physical, cognitive and emotional, and coping), the FSIQ-RMS is a comprehensive, valid, and reliable measure of fatigue-related symptoms and impacts in RMS patients. FIG. 2B depicts a conceptual framework for the FSIQ-RMS.
(§1) In some embodiments, the patient-reported outcome questionnaire is the symptom domain of the FSIQ-RMS. The FSIQ-RMS symptom domain (FSIQ-RMS-S) consists of seven items assessing fatigue-related symptoms with a recall period of 24 hours measured on an 11-point numeric rating scale; the standardized symptom domain score ranges from 0 to 100 with a higher score indicating greater fatigue. This domain (i.e., section 1 of the questionnaire) is completed on 7 consecutive days.
The patient-reported outcome questionnaire used for the below Examples is the Fatigue Symptoms and Impact Questionnaire-Relapsing Multiple Sclerosis (FSIQ-RMS). The FSIQ-RMS is an MS specific 20-item PRO measure that comprises 2 domains: one measuring MS symptoms (7 items) and one measuring MS-related impacts (13 items). The 7 symptom items and 13 impact items (in 3 impacts subdomains: physical, cognitive and emotional, and coping) are presented below.
For the MS symptoms domain, the FSIQ-RMS asks about a patient's fatigue-related symptoms of relapsing MS over the past 24 hours while doing routine daily activities (e.g., housework, yard work, shopping, working, etc.) for Items 1-6 or while at rest (e.g., reading a book, watching TV, etc.) for Item 7. Patients are asked to select a response on a scale of Oto 10 that best describes their experience and are asked to not skip any questions, with no answers being right or wrong.
(§2) Secondary efficacy variables and testing strategy: Four secondary efficacy endpoints were analyzed as per the statistical testing strategy outlined in FIG. 1. • Change from baseline to Week 108 in fatigue-related symptoms as measured by the symptoms domain of the FSIQ-RMS patient-reported outcome [Fatigue] • Cumulative number of combined unique active lesions from baseline to Week 108 on brain MRI [CUALs] • Time to first 12-week confirmed disability accumulation (CDA) from baseline to EOS on Expanded Disability Status Scale (EDSS) [12-week CDA] • Time to first 24-week CDA from baseline to EOS on EDSS [24-week CDA]
as §1, with “The” for “In some embodiments, the patient-reported outcome questionnaire is the symptom domain of the FSIQ-RMS. The”
FSIQ-RMS was completed during the pre-randomization period, at Visits 6, 7, 10, and 12 (Weeks 12, 24, 60, 84), 14 (EOT), and at unscheduled visits due to relapses (R1, R2, etc.) or other unscheduled visits (U1, U2, etc.) as described below. If applicable, FSIQ-RMS was performed at the corresponding visits in the PTOP.
The completion of the FSIQ-RMS during the pre-randomization period was done as follows: At Visit 1 (Screening), subjects who appear eligible based on the assessments made during this visit (but prior to the results from the laboratory assessments are received) were provided with the electronic device containing the FSIQ-RMS. […]

[2] = system: adult subjects with relapsing MS; assay: Time to first 12-week confirmed disability accumulation (CDA) on EDSS; type: in vivo, human
Description: as §2
A 12-week CDA is an increase of at least 1.5 in EDSS for subjects with a baseline EDSS score of 0.0 or an increase of at least 1.0 in EDSS for subjects with a baseline EDSS score of 1.0 to 5.0, or an increase of at least 0.5 in EDSS for subjects with a baseline EDSS score ≥5.5 which is to be confirmed after 12 weeks.
Baseline EDSS is defined as the last EDSS score recorded prior to randomization. The initial EDSS increase, meeting the above criteria, is defined as the onset of disability accumulation.
All EDSS measurements (with or without relapse, at a scheduled or unscheduled visit) were used to determine the onset of disability accumulation. […]

[3] = Reasons for premature treatment discontinuation; type: in vivo
Description: A total of 1468 subjects were screened. Of those, 1133 subjects were randomized (567 to ponesimod 20 mg and 566 to teriflunomide 14 mg) across 162 sites in 28 countries, and 1131 subjects received at least one dose of study drug. The disposition of subjects is summarized in Table 1 and a summary of reasons (primary reason) for treatment discontinuation are shown in Table 2. Overall treatment and study discontinuation were balanced across both treatment arms. A total of 6.5% and 2.5% of the subjects discontinued due to AEs or tolerability related reasons in ponesimod 20 mg and teriflunomide 14 mg, respectively, while 1.9% and 4.3% discontinued due to efficacy related reasons. There were 2 deaths reported during the study—both on teriflunomide 14 mg.

[4] = patients with no prior DMT treatment within about two years, FSIQ-RMS weekly symptoms score
[5] = patients without Gd+T1 lesions at baseline, FSIQ-RMS weekly symptoms score

CCC/N=C1\S/C(=C\c2ccc(OC[C@H](O)CO)c(Cl)c2)C(=O)N1c1ccccc1C [Ponesimod, (R)-5-[3-chloro-4-(2,3-dihydroxy-propoxy)-benz[Z]ylidene]-2-([Z]-propylimino)-3-o-tolyl-thiazolidin-4-one]
Change from baseline to Week 108 in FSIQ-RMS weekly symptoms score (mean) ([1]; MMRM, Full Analysis Set, increase = worsening, ponesimod 20 mg, teriflunomide 14 mg): −0.01
Change From Baseline to Week 108: Stable or Improved ([1]; patients with baseline fatigue below the median, FSIQ-RMS weekly symptoms score): ~65%
Change From Baseline to Week 108: Stable (−6.3 < x < +6.3) [1, 4]: 44.0%
Change From Baseline to Week 108: Stable or Improved [1, 4]: about 75%
Change From Baseline to Week 108: Improved (<−6.3) [1, 5]: 30.0%
Change From Baseline to Week 108: Stable or Improved [1, 5]: about 68%
Time to first 12-week CDA, hazard ratio ([2]; ponesimod 20 mg vs teriflunomide 14 mg, stratified Cox regression): 0.83
Reduction of the risk of 12-week CDA compared to teriflunomide 14 mg ([2]; ponesimod 20 mg, not statistically significant): 17%
Premature treatment discontinuation: Death ([3]; Safety Set, ponesimod 20 mg N = 565, teriflunomide 14 mg N = 566): 0 n
Subjects who discontinued due to AEs or tolerability related reasons ([3]; ponesimod 20 mg, teriflunomide 14 mg): 6.5%

Source: US12502379B2, “Ponesimod for avoiding worsening of fatigue-related symptoms in multiple sclerosis patients” (Vanda Pharmaceuticals Inc., priority 2019, dated 2025)
